{"source": "patent US9737525B2", "about": "“Small molecule activators of NRF2 pathway” (The General Hospital Corporation, priority 2013, dated 2017)", "key": {"[1]": {"test_system": "medium spiny neurons (MSNs) expressing mHTTex1", "experiment": "Acutely transfected rat brain slice culture assay", "type": "cell-based", "description": "Coronal brain slices (250 μm thick) containing both cortex and striatum were prepared from CD Sprague-Dawley rat pups at postnatal day 10 and placed into interface culture as previously described (Reinhart et al., 2011). A biolistic device (Helios Gene Gun; Bio-Rad) was then used to co-transfect the brain slices with YFP visual reporter and a 90 amino acid mutant huntingtin plasmid containing human htt exon-1 harboring a 73 CAG repeat to induce neurodegeneration of medium spiny neurons (MSNs). mHTTex1 expression induced progressive neurodegeneration of medium spiny neurons (MSNs) compared to controls over a period of 4 days.\nMIND4 was added to the culture wells at the time of slice preparation and transfection to a final DMSO concentration of 0.1%; this concentration of DMSO was also added to all control wells. The positive control used for these experiments was the pan-caspase inhibitor Boc-D-FMK at 100 μM (Varna et al., 2007). YFP co-transfected MSNs were identified 4 days after incubation by their location within the striatum and by their characteristic dendritic arborization as previously described (Crittenden et al., 2010; Reinhart et al., 2011). […] Ordinate axis expresses the mean numbers of healthy YFP-positive MSNs per striatal region in each brain slice. […]"}, "[2]": {"test_system": "mutant HTT exon 1 fragment", "experiment": "Mutant HTT exon 1 levels in R6/2 mice (HTRF)", "type": "in vivo, mouse", "conditions": "50 mg/kG daily for 3 weeks", "description": "In effects of brain-permeable MIND4 on clearance misfloded mutant HTT fragments have been tested in HD mouse model R6/2, expressing mutant HTT exon 1 fragment. Symptomatic HD mice (5 week old) have been treated with MIND4 at 50 mg/kG daily dose for 3 weeks. Treatment effects on levels of mutant exon 1 HTT have been measured by a highly sensitive HTRF method (FIG. 17C) as described (Mosckovitch-Lopatin, 2010; Chopra, 2012)."}, "[3]": {"test_system": "TNFα", "experiment": "TNFα protein in brain of HD mouse model R6/2", "type": "in vivo", "conditions": "R6/2 mice, daily i.p. 50 mg/kg, 4 weeks", "description": "To assess protein levels, cell extracts were prepared from cells washed with PBS and lysed with buffer containing 2% SDS, Complete EDTA-free Protease Inhibitor Cocktail (Roche) and 1 mM phenylmethylsulfonyl fluoride. To prepare brain extracts for analysis, frozen mouse cortical tissues were homogenized in PBS containing protease inhibitors with an Kontes Pellet Pestle (Kimble/Kontes). They were later sonicated and lysed overnight at 4° C. in 2× volume of lysis buffer containing 2% SDS and protease inhibitors. Protein concentrations in ST14A cell extracts and homogenized cortical tissues were evaluated using a BCA analysis kit and normalized. Samples were prepared in a SDS buffer containing DTT and separated on bis-acrylamide protein gels via electrophoresis and transferred onto a 0.2 μm PVDF membrane). […]\nFor this animal trial, the well-characterized transgenic R6/2 mouse model of HD was selected, in which severe neurological phenotypes and premature death at age of 12-13 week is conferred by expression of a human HTT exon 1 fragment containing a pathological ˜150Q repeat tract (Mangiarini et al., 1996). […] Body weights were recorded weekly at the same time of day. At 10 weeks of age, mice were sacrificed 2 hrs after the last injection; brains were removed and snap frozen in liquid nitrogen and kept frozen at −80° C. until analyzed. […]"}}}
{"smiles": "O=[N+]([O-])c1ccc(Sc2nnc(COc3ccccc3)n2-c2ccccc2)c2ncccc12", "note": "[MIND4, 5-nitro-8-{[5-(phenoxymethyl)-4-phenyl-4H-1,2,4-triazol-3-yl]thio}quinoline]", "values": [{"measurement": "Neuroprotection relative to Boc-D-FMK at 100 μM", "setting": "[1]; 10 μM", "value": "comparable to the efficacy of a reference compound"}, {"measurement": "Protection against mHTTex1-induced neurodegeneration of MSNs", "setting": "[1]; concentration-dependent, 4 days", "value": "significantly protected against mHTTex1-induced neurodegeneration"}, {"measurement": "Mutant HTT exon 1 fragments in cortex", "setting": "[2]", "value": "Significant reduction of mutant HTT exon I fragments"}, {"measurement": "TNFα protein levels in cortical extracts", "setting": "[3]", "value": "striking reduction of TNFα"}]}
